Source: the NIST ThermoML archive (doi:10.1021/acs.jced.9b00371)
Numbers after ± are expanded uncertainties.

Settings: Liquid, Brillouin light scattering method

CCCCCCCC(=O)OC [methyl octanoate]
Settings	speed of sound [m/s]
298.22 K, 7000 kPa	1316.3 ± 14
298.3 K, 10010 kPa	1327.9 ± 15
298.44 K, 1010 kPa	1292.1 ± 14
298.44 K, 5000 kPa	1307.1 ± 14
298.6 K, 3000 kPa	1298.2 ± 14
298.84 K, 90 kPa	1274.5 ± 14
308.25 K, 3010 kPa	1258.8 ± 15
308.37 K, 10010 kPa	1291.2 ± 14
308.42 K, 100 kPa	1236.4 ± 15
308.49 K, 7010 kPa	1280.4 ± 14
308.52 K, 1010 kPa	1248.8 ± 15
308.58 K, 5010 kPa	1270.1 ± 14
318.18 K, 5010 kPa	1221.3 ± 15
318.56 K, 7020 kPa	1229.5 ± 15
318.76 K, 10010 kPa	1242.4 ± 15
318.91 K, 3010 kPa	1208 ± 14
319.59 K, 110 kPa	1192.3 ± 14
319.89 K, 1010 kPa	1194.5 ± 14
327.96 K, 5010 kPa	1186 ± 14
328.11 K, 3020 kPa	1171.3 ± 14
328.36 K, 100 kPa	1158 ± 14
328.69 K, 7010 kPa	1191.4 ± 14
328.82 K, 10010 kPa	1209.9 ± 14
328.88 K, 1010 kPa	1155.4 ± 14
337.63 K, 100 kPa	1121.6 ± 15
337.88 K, 7010 kPa	1157.9 ± 14
338.43 K, 1010 kPa	1125.5 ± 15
338.46 K, 10010 kPa	1174.8 ± 14
338.47 K, 5000 kPa	1147.2 ± 14
338.96 K, 3000 kPa	1134.3 ± 14
347.39 K, 3000 kPa	1104.6 ± 14
347.87 K, 10010 kPa	1148.4 ± 14
348.45 K, 110 kPa	1078.6 ± 14
348.54 K, 5020 kPa	1109.1 ± 14
348.77 K, 7000 kPa	1120.5 ± 15
348.8 K, 1000 kPa	1085.5 ± 14
357.69 K, 3010 kPa	1071.8 ± 14
357.74 K, 5000 kPa	1079.2 ± 14
357.91 K, 10000 kPa	1112.7 ± 14
358.16 K, 100 kPa	1044.6 ± 14
358.25 K, 7000 kPa	1095.1 ± 14
358.56 K, 1010 kPa	1049.3 ± 14
367.26 K, 5000 kPa	1049.2 ± 14
367.28 K, 3000 kPa	1038.1 ± 14
367.29 K, 110 kPa	1015.5 ± 14
367.47 K, 10010 kPa	1078.4 ± 14
367.73 K, 7010 kPa	1060.7 ± 14
368.05 K, 1000 kPa	1017.5 ± 14
377.8 K, 1000 kPa	989.1 ± 14
378.03 K, 7000 kPa	1027.3 ± 13
378.16 K, 4990 kPa	1013.1 ± 14
378.27 K, 100 kPa	975.6 ± 14
378.29 K, 10000 kPa	1047.1 ± 14
378.6 K, 3000 kPa	1000.4 ± 14
387.15 K, 110 kPa	947.3 ± 13
387.64 K, 3000 kPa	964.7 ± 14
387.88 K, 10010 kPa	1017.7 ± 14
388.01 K, 7000 kPa	991.8 ± 14
388.02 K, 1000 kPa	952.1 ± 13
388.04 K, 5000 kPa	978.4 ± 14
397.22 K, 1010 kPa	922.4 ± 14
397.37 K, 3010 kPa	934 ± 14
397.49 K, 10010 kPa	988 ± 14
397.57 K, 7010 kPa	963.7 ± 14
397.59 K, 5010 kPa	949.2 ± 13
397.71 K, 100 kPa	910.7 ± 14
407.84 K, 5010 kPa	916.3 ± 14
408.01 K, 10010 kPa	954.1 ± 13
408.03 K, 3000 kPa	896.1 ± 13
408.14 K, 100 kPa	873.1 ± 13
408.48 K, 7010 kPa	933.8 ± 14
409.43 K, 1000 kPa	879.8 ± 13
417.31 K, 1010 kPa	850.6 ± 14
417.49 K, 110 kPa	841.4 ± 14
417.49 K, 5000 kPa	885.5 ± 13
417.57 K, 7000 kPa	904.2 ± 14
417.65 K, 10000 kPa	925.4 ± 14
417.75 K, 3000 kPa	867.9 ± 13
427.78 K, 110 kPa	811.6 ± 13
427.88 K, 7010 kPa	873.7 ± 13
427.9 K, 1010 kPa	822.3 ± 13
427.93 K, 3010 kPa	837.5 ± 13
427.94 K, 10010 kPa	899.7 ± 14
427.95 K, 5010 kPa	855.8 ± 14
438.55 K, 100 kPa	775.1 ± 13
438.61 K, 1000 kPa	780.2 ± 13
438.61 K, 10010 kPa	866.1 ± 13
438.81 K, 7000 kPa	838.7 ± 13
438.87 K, 5000 kPa	823.4 ± 13
438.94 K, 3010 kPa	803.1 ± 14
447.87 K, 1010 kPa	754.6 ± 13
447.88 K, 5000 kPa	793.5 ± 14
447.92 K, 7000 kPa	813.8 ± 13
447.96 K, 3010 kPa	776.7 ± 13
447.96 K, 10000 kPa	841 ± 14
448.01 K, 110 kPa	744.4 ± 13
457.92 K, 1000 kPa	724.7 ± 13
458.07 K, 5010 kPa	760.9 ± 13
458.12 K, 7010 kPa	782.2 ± 13
458.17 K, 3000 kPa	744.1 ± 13
458.18 K, 10010 kPa	810.7 ± 13
467.43 K, 10010 kPa	784.5 ± 13
467.58 K, 7010 kPa	759.7 ± 13
467.9 K, 5000 kPa	738.9 ± 13
468.47 K, 1010 kPa	694.8 ± 13
468.68 K, 3000 kPa	713.7 ± 13
476.82 K, 5010 kPa	710.8 ± 13
477 K, 10010 kPa	759.6 ± 13
477.06 K, 1000 kPa	665 ± 13
477.26 K, 7010 kPa	729 ± 13
477.88 K, 3010 kPa	685.8 ± 13
486.8 K, 1000 kPa	631 ± 13
486.87 K, 3000 kPa	654.3 ± 13
486.92 K, 5010 kPa	682 ± 13
486.96 K, 7010 kPa	700 ± 13
487 K, 10010 kPa	738.2 ± 13
498.13 K, 3010 kPa	625.4 ± 13
498.28 K, 7000 kPa	667.5 ± 13
498.28 K, 10000 kPa	705 ± 13
498.41 K, 5000 kPa	644.1 ± 13
498.83 K, 1000 kPa	596.6 ± 13
507.85 K, 1010 kPa	568.9 ± 12
507.87 K, 7000 kPa	646.1 ± 13
507.89 K, 3010 kPa	596.3 ± 13
507.91 K, 5010 kPa	620.4 ± 13
507.91 K, 10000 kPa	680.6 ± 13
517.71 K, 3000 kPa	567.5 ± 13
517.73 K, 1000 kPa	534.7 ± 13
517.79 K, 7000 kPa	619 ± 13
517.81 K, 5000 kPa	594.2 ± 13
518.17 K, 10000 kPa	658.9 ± 13
527.51 K, 7010 kPa	600 ± 13
527.6 K, 1010 kPa	500 ± 12
527.66 K, 3010 kPa	537.5 ± 13
528.05 K, 10000 kPa	631.9 ± 13
528.28 K, 5010 kPa	569.1 ± 12
537.38 K, 1000 kPa	472.9 ± 13
537.57 K, 7000 kPa	569.9 ± 12
537.63 K, 3010 kPa	511.3 ± 13
537.67 K, 5000 kPa	543.3 ± 12
537.72 K, 9990 kPa	609.6 ± 13
547.06 K, 1000 kPa	438.8 ± 13
547.13 K, 5010 kPa	516 ± 13
547.47 K, 10010 kPa	583.9 ± 13
547.67 K, 7000 kPa	544 ± 12
547.87 K, 3000 kPa	480.9 ± 12
557.84 K, 1000 kPa	403.8 ± 12
557.94 K, 5010 kPa	489.3 ± 13
558.16 K, 7000 kPa	515.9 ± 13
558.18 K, 10010 kPa	561.2 ± 13
558.2 K, 3000 kPa	448 ± 12
567.35 K, 1010 kPa	371.2 ± 13
567.7 K, 5000 kPa	461 ± 12
567.81 K, 7000 kPa	495.4 ± 13
567.91 K, 3010 kPa	418.8 ± 12
567.95 K, 10010 kPa	543.8 ± 12
577.4 K, 3010 kPa	389.4 ± 11
577.79 K, 5000 kPa	432.1 ± 12
577.89 K, 7000 kPa	469.8 ± 13
578.16 K, 10000 kPa	522.9 ± 13
587.88 K, 3000 kPa	361.9 ± 11
588.02 K, 5010 kPa	411.1 ± 12
588.47 K, 7010 kPa	450.4 ± 13
597.58 K, 3000 kPa	331.4 ± 10
598.07 K, 7000 kPa	426.9 ± 12
598.29 K, 5010 kPa	384.1 ± 12
608.09 K, 7010 kPa	400.7 ± 12
608.23 K, 5000 kPa	353.7 ± 11
608.38 K, 3000 kPa	294.3 ± 9.5
